Our source for the water solubility values is patent US20040086479A1, “Novel dendritic polymers, crosslinked gels, and their biomedical uses” (DUKE UNIVERSITY, priority 2001, published 2004).

Each structure is given as a SMILES string. ≈ marks a conversion by molar mass, not a printed value.

The data set is described as follows: Water solubility. The data set is classed as physicochemical.

Turning to `CC[C@@]1(O)C(=O)OCc2c1cc1n(c2=O)Cc2cc3cc(O)ccc3nc2-1` [Example 10HCPT, 10-hydroxycamptothecin], the water solubility is about 6 µM (≈ 2.19 µg/mL). In the case of `[O-]c1c(-c2ccccc2)cc(-[n+]2c(-c3ccccc3)cc(-c3ccccc3)cc2-c2ccccc2)cc1-c1ccccc1` [Reichardt's dye], the water solubility is reported as 10^−6 M.
